According to EP0641797A1, “Cephem derivatives and antimicrobial agents containing the same” (KATAYAMA SEIYAKUSYO CO. Ltd., priority 1993, dated 1995):
Values after ≈ are worked out from the molar mass of the structure shown. Read-outs that look alike come from different tables or passages of the source.

Legend:
Assay in all cases: MIC on standard strains, standard method of Japan Society of Chemotherapy
Format in all cases: cell-based
[1] = system: M. morganii IFO 3848; settings: Morganella morganii, IFO3848
Experimental: (§1) Antimicrobial activity of the compounds of the present invention were measured using CTM (cefotiam) and FMOX (flomoxef) as control drugs in accordance with the standard method of Japan Society of Chemotherapy. Of the 25 standard strains used in this test, Staphylococcus aureus 167 and Staphylococcus aureus 195 belong to MRSA.
(§2) In these tables, drugs tested are shown by the corresponding examples in which they were synthesized.

[2] = system: P. aeruginosa AKR17; settings: Pseudomonas aeruginosa
Experimental: as §1, §2

[3] = system: S. aureus 195; settings: Staphylococcus aureus; S. aureus 195 (MRSA)
Experimental: as §1, §2

[4] = system: E. coli CSH2(RK1); settings: Escherichia coli
Experimental: as §1, §2

[5] = system: E. coli NHIJ JC-2; settings: Escherichia coli, NHIJJC2
Experimental: as §1, §2

[6] = system: B. subtilis ATCC 6633
Experimental: as §1, §2

[7] = system: A. faecalis ATCC 3750; settings: Alcaligenes faecalis, ATCC3750, A. faecalis ATCC 3750; read-out: MIC
Experimental: as §1, §2

[8] = system: A. calcoaceticos T59
Experimental: as §1, §2

[9] = system: P. cepacia
Experimental: as §1, §2

[10] = system: P. aeruginosa NCTC 10490; settings: Pseudomonas aeruginosa, NCTC10490, P. aeruginosa NCTC 10490; read-out: MIC
Experimental: as §1, §2

[11] = system: E. coli CSH2(RE45); settings: Escherichia coli
Experimental: as §1, §2

[12] = system: S. marcescens No. 16-2; settings: Serratia marcescens, NO.162
Experimental: as §1, §2

[13] = system: P. vulugaris OX-19
Experimental: as §1, §2

[14] = system: E. cloacae ATCC 13407
Experimental: as §1, §2

[15] = system: K. pneuminiae No. 42
Experimental: as §1, §2

[16] = system: S. aureus 167; settings: Staphylococcus aureus; S. aureus 167 (MRSA)
Experimental: as §1, §2

[17] = system: M. luteus ATCC 9341; settings: Micrococcus luteus, ATCC9341
Experimental: as §1, §2

[18] = system: E. cloacae Nek39
Experimental: as §1, §2

[19] = system: P. mirabilis IFO 3849
Experimental: as §1, §2

[20] = system: S. aureus Smith; settings: Staphylococcus aureus, read-out: MIC
Experimental: as §1, §2

[21] = system: C. freundii ATCC 8090
Experimental: as §1, §2

[22] = system: K. pneuminiae IFO 3317
Experimental: as §1, §2

[23] = system: S. epidemidis IAM 1296
Experimental: as §1, §2

[24] = system: S. aureus 209p JC-1; settings: Staphylococcus aureus, 209P, read-out: MIC
Experimental: as §1, §2

[25] = system: S. marcescens IAM 1184; settings: Serratia marcescens, IAM1184, S. marcescens IAM 1184; read-out: MIC
Experimental: as §1, §2

[26] = Bacillus subtilis, ATCC6633, B. subtilis ATCC 6633, read-out: MIC
[27] = Burkholderia cepacia, read-out: MIC
[28] = Enterobacter cloacae, ATCC13407, E. cloacae ATCC 13407, read-out: MIC
[29] = Enterobacter cloacae, NEK39, E. cloacae Nek39, read-out: MIC
[30] = Proteus mirabilis, IFO3849, P. mirabilis IFO 3849, read-out: MIC
[31] = Citrobacter freundii, ATCC8090, C. freundii ATCC 8090, read-out: MIC

Compound	MIC [1]	MIC [2]	MIC [3]	MIC [4]	MIC [5]	MIC [6, 26]	MIC [7]	MIC ([8]; read-out: MIC)	MIC [9, 27]	MIC [10]	MIC [11]	MIC [12]	MIC [13]	MIC [14, 28]	MIC [15]	MIC [16]	MIC [17]	MIC [18, 29]	MIC [19, 30]	MIC [20]	other results
CO[C@@]1(NC(=O)CSC(F)F)C(=O)N2C(C(=O)O)=C(CSc3nnnn3CCO)CO[C@@H]21 [FMOX, flomoxef, reference compound]	0.39 µg/mL (≈ 0.786 µM)	> 100 µg/mL	3.13 µg/mL (≈ 6.3 µM)	0.1 µg/mL (≈ 0.201 µM)	0.1 µg/mL (≈ 0.201 µM)	0.39 µg/mL (≈ 0.786 µM)	0.1 µg/mL (≈ 0.201 µM)	> 100 µg/mL	50 µg/mL (≈ 101 µM)	> 100 µg/mL	0.1 µg/mL (≈ 0.201 µM)	100 µg/mL (≈ 201 µM)	0.39 µg/mL (≈ 0.786 µM)	50 µg/mL (≈ 101 µM)	0.1 µg/mL (≈ 0.201 µM)	50 µg/mL (≈ 101 µM)	0.1 µg/mL (≈ 0.201 µM)	> 100 µg/mL	0.39 µg/mL (≈ 0.786 µM)	0.39 µg/mL (≈ 0.786 µM)	MIC ([6]; B. subtilis ATCC 6633): 0.2 µg/mL (≈ 0.403 µM); MIC [8]: 100 µg/mL (≈ 201 µM); MIC [9]: 100 µg/mL (≈ 201 µM); MIC ([14]; E. cloacae ATCC 13407): 100 µg/mL (≈ 201 µM); MIC ([18]; E. cloacae Nek39): 100 µg/mL (≈ 201 µM); MIC ([19]; P. mirabilis IFO 3849): 0.2 µg/mL (≈ 0.403 µM); MIC ([21]; C. freundii ATCC 8090): 0.2 µg/mL (≈ 0.403 µM); MIC [21, 31]: 0.39 µg/mL (≈ 0.786 µM); MIC [22]: 0.05 µg/mL (≈ 0.101 µM); MIC [23]: 0.2 µg/mL (≈ 0.403 µM); MIC [24]: 0.39 µg/mL (≈ 0.786 µM); MIC [25]: 0.2 µg/mL (≈ 0.403 µM)
Nc1nc(/C(=N/O)C(=O)N[C@@H]2C(=O)N3C(C(=O)[O-])=C(C[n+]4ccc(-c5cncs5)cc4)CS[C@H]23)cs1 [Ex. 22, 7β-[2-(2-aminothiazol-4-yl)-2-syn-hydroxyiminoacetamido]-3-[4-(thiazol-5-yl)pyridinio]methyl-3-cephem-4-carboxylate]	0.025 µg/mL (≈ 0.046 µM)	> 100 µg/mL	0.78 µg/mL (≈ 1.43 µM)	0.2 µg/mL (≈ 0.368 µM)	0.1 µg/mL (≈ 0.184 µM)	0.2 µg/mL (≈ 0.368 µM)	1.56 µg/mL (≈ 2.87 µM)	12.5 µg/mL (≈ 23 µM)	> 100 µg/mL	3.13 µg/mL (≈ 5.76 µM)	0.1 µg/mL (≈ 0.184 µM)	25 µg/mL (≈ 46 µM)	0.1 µg/mL (≈ 0.184 µM)	0.78 µg/mL (≈ 1.43 µM)	0.1 µg/mL (≈ 0.184 µM)	1.56 µg/mL (≈ 2.87 µM)	0.025 µg/mL (≈ 0.046 µM)	25 µg/mL (≈ 46 µM)	0.1 µg/mL (≈ 0.184 µM)	0.2 µg/mL (≈ 0.368 µM)	MIC [21, 31]: 0.1 µg/mL (≈ 0.184 µM); MIC [22]: 0.05 µg/mL (≈ 0.092 µM); MIC [23]: 0.1 µg/mL (≈ 0.184 µM); MIC [24]: 0.2 µg/mL (≈ 0.368 µM); MIC [25]: 0.1 µg/mL (≈ 0.184 µM)
Nc1nc(/C(=N/O)C(=O)N[C@@H]2C(=O)N3C(C(=O)[O-])=C(C[n+]4ccc(-c5nsc(N)n5)cc4)CS[C@H]23)cs1 [Ex. 11, 7β-[2-(2-aminothiazol-4-yl)-2-syn-hydroxyiminoacetamido]-3-[4-(5-amino-1,2,4-thiadiazol-3-yl)pyridinio]methyl-3-cephem-4-carboxylate]	0.05 µg/mL (≈ 0.0893 µM)	> 100 µg/mL	1.56 µg/mL (≈ 2.79 µM)	0.39 µg/mL (≈ 0.697 µM)	0.1 µg/mL (≈ 0.179 µM)	0.1 µg/mL (≈ 0.179 µM)	1.56 µg/mL (≈ 2.79 µM)	25 µg/mL (≈ 44.7 µM)	> 100 µg/mL	3.13 µg/mL (≈ 5.59 µM)	0.2 µg/mL (≈ 0.357 µM)	100 µg/mL (≈ 179 µM)	0.1 µg/mL (≈ 0.179 µM)	6.25 µg/mL (≈ 11.2 µM)	0.39 µg/mL (≈ 0.697 µM)	6.25 µg/mL (≈ 11.2 µM)	0.05 µg/mL (≈ 0.0893 µM)	> 100 µg/mL	0.2 µg/mL (≈ 0.357 µM)	0.1 µg/mL (≈ 0.179 µM)	MIC [21, 31]: 0.2 µg/mL (≈ 0.357 µM); MIC [22]: 0.1 µg/mL (≈ 0.179 µM); MIC [23]: 0.05 µg/mL (≈ 0.0893 µM); MIC [24]: 0.1 µg/mL (≈ 0.179 µM); MIC [25]: 0.39 µg/mL (≈ 0.697 µM)
Nc1nnc(-c2cc[n+](CC3=C(C(=O)[O-])N4C(=O)[C@@H](NC(=O)/C(=N\O)c5csc(N)n5)[C@H]4SC3)cc2)o1 [Ex. 15, 7β-[2-(2-aminothiazol-4-yl)-2-syn-hydroxyiminoacetamido]-3-[4-(2-amino-1,3,4-oxadiazol-5-yl)pyridinio]methyl-3-cephem-4-carboxylate]	0.1 µg/mL (≈ 0.184 µM)	> 100 µg/mL	6.25 µg/mL (≈ 11.5 µM)	0.78 µg/mL (≈ 1.44 µM)	0.2 µg/mL (≈ 0.368 µM)	0.39 µg/mL (≈ 0.718 µM)	1.56 µg/mL (≈ 2.87 µM)	12.5 µg/mL (≈ 23 µM)	> 100 µg/mL	1.56 µg/mL (≈ 2.87 µM)	0.39 µg/mL (≈ 0.718 µM)	100 µg/mL (≈ 184 µM)	0.2 µg/mL (≈ 0.368 µM)	6.25 µg/mL (≈ 11.5 µM)	0.39 µg/mL (≈ 0.718 µM)	6.25 µg/mL (≈ 11.5 µM)	0.05 µg/mL (≈ 0.092 µM)	50 µg/mL (≈ 92 µM)	0.2 µg/mL (≈ 0.368 µM)	0.39 µg/mL (≈ 0.718 µM)	MIC [21, 31]: 0.2 µg/mL (≈ 0.368 µM); MIC [22]: 0.2 µg/mL (≈ 0.368 µM); MIC [23]: 0.1 µg/mL (≈ 0.184 µM); MIC [24]: 0.39 µg/mL (≈ 0.718 µM); MIC [25]: 0.2 µg/mL (≈ 0.368 µM)
